Source: US9845322B2 (Hoffmann-La Roche Inc., priority 2016, dated 2017)
Like-named read-outs stand apart in the source and are kept apart here.

Test system: HBsAg secretion in HepG2.2.15 cells
Assay: HBsAg assay (chemiluminescence immunoassay of secreted HBsAg in culture supernatant)
Assay type: cell-based, HBV
Conditions: concentration at which HBsAg secretion was reduced by 50% compared to the no drug control, read-out: IC50 (HBsAg assay)
Procedure, shortened: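 HepG2.2.15 cells (1.5×10^4/well, duplicate) treated with three-fold compound dilutions, 1% DMSO final, DMSO as no-drug control. Secreted HBsAg in supernatant quantified semi-quantitatively by chemiluminescence immunoassay; IC50 is concentration reducing HBsAg 50% versus no-drug control.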

[1] = Hepatitis B virus, HepG2.2.15, HepG2.2.15 cells

| SMILES | IC50 (HepG2.2.15 cells) [µM] | IC50 [1] [µM] |
| --- | --- | --- |
| CC1c2cnc(-c3ncccn3)nc2CCN1c1cc(F)c(F)c(OCC(N)=O)c1 (stereo not drawn) [Example 66, 2-[2,3-difluoro-5-(5-methyl-2-pyrimidin-2-yl-7,8-dihydro-5H-pyrido[4,3-d]pyrimidin-6-yl)phenoxy]acetamide] | 0.168 |  |
| CC1c2cnc(-c3ccccn3)nc2CCN1c1cc(N2CCCCC2)cc(F)n1 (stereo not drawn) [Example 218, 6-(6-fluoro-4-(piperidin-1-yl)pyridin-2-yl)-5-methyl-2-(pyridin-2-yl)-5,6,7,8-tetrahydropyrido[4,3-d]pyrimidine] |  | 0.022 |
| COc1cc(N2CCc3nc(-c4ncccn4)ncc3C2C)cc(F)n1 (stereo not drawn) [Example 129, 6-(2-fluoro-6-methoxy-4-pyridyl)-5-methyl-2-pyrimidin-2-yl-7,8-dihydro-5H-pyrido[4,3-d]pyrimidine] |  | 0.018 |
| CC1c2cnc(-c3ccccn3)nc2CCN1c1cc(OCC2CCOCC2)cc(F)n1 (stereo not drawn) [Example 190, 6-[6-fluoro-4-(tetrahydropyran-4-ylmethoxy)-2-pyridyl]-5-methyl-2-(2-pyridyl)-7,8-dihydro-5H-pyrido[4,3-d]pyrimidine] |  | 0.024 |
| CC1c2cnc(-c3ncccn3)nc2CCN1c1cc(F)c(F)c(OCC2CSC2)c1 (stereo not drawn) [Example 119, 6-[3,4-difluoro-5-(thietan-3-ylmethoxy)phenyl]-5-methyl-2-pyrimidin-2-yl-7,8-dihydro-5H-pyrido[4,3-d]pyrimidine] |  | 0.051 |
| CC1c2cnc(-c3ncccn3)nc2CCN1c1cc(F)c(F)c(OCCCCCCCCNC(=O)OC(C)(C)C)c1 (stereo not drawn) [Example 54, tert-butyl N-[8-[2,3-difluoro-5-(5-methyl-2-pyrimidin-2-yl-7,8-dihydro-5H-pyrido[4,3-d]pyrimidin-6-yl)phenoxy]octyl]carbamate] |  | 0.146 |
| CC1c2cnc(-c3ncccn3)nc2CCN1c1cc(F)c(F)c(OCCCN2CCN(S(C)(=O)=O)CC2)c1 (stereo not drawn) [Example 110, 6-[3,4-difluoro-5-[3-(4-methylsulfonylpiperazin-1-yl)propoxy]phenyl]-5-methyl-2-pyrimidin-2-yl-7,8-dihydro-5H-pyrido[4,3-d]pyrimidine] |  | 0.079 |
| CC1c2cnc(-c3ccccn3)nc2CCN1c1cc(OCC2CCCO2)cc(F)n1 (stereo not drawn) [Example 189, 6-[6-fluoro-4-(tetrahydrofuran-2-ylmethoxy)-2-pyridyl]-5-methyl-2-(2-pyridyl)-7,8-dihydro-5H-pyrido[4,3-d]pyrimidine] |  | 0.04 |
| CC1c2cnc(-c3ccccn3)nc2CCN1c1cc(F)c(F)c(OCCCCCO)c1 (stereo not drawn) [Example 25, 5-[2,3-difluoro-5-[5-methyl-2-(2-pyridyl)-7,8-dihydro-5H-pyrido[4,3-d]pyrimidin-6-yl]phenoxy]pentan-1-ol] |  | 0.033 |
| CCCC1c2cnc(-c3ccccn3)nc2CCN1c1cc(F)c(F)c(OC)c1 (single isomer, unassigned; (+)) [Example 13, (+)-6-(3,4-difluoro-5-methoxy-phenyl)-5-propyl-2-(2-pyridyl)-7,8-dihydro-5H-pyrido[4,3-d]pyrimidine] | 14.4 |  |
| CC1c2cnc(-c3ncccn3)nc2CCN1c1cc(F)c(F)c(OCCCN)c1 (stereo not drawn) [Example 91, 3-[2,3-difluoro-5-(5-methyl-2-pyrimidin-2-yl-7,8-dihydro-5H-pyrido[4,3-d]pyrimidin-6-yl)phenoxy]propan-1-amine] |  | 0.483 |
| CC1c2cnc(-c3ncccn3)nc2CCN1c1cc(NS(C)(=O)=O)cc(F)n1 (stereo not drawn) [Example 211, N-[2-fluoro-6-(5-methyl-2-pyrimidin-2-yl-7,8-dihydro-5H-pyrido[4,3-d]pyrimidin-6-yl)-4-pyridyl]methanesulfonamide] |  | 0.27 |
| CC1c2cnc(-c3ncccn3)nc2CCN1c1cc(F)c(F)c(OCCCCCCN)c1 (single isomer, unassigned; (-)) [Example 60, (−)-6-[2,3-difluoro-5-(5-methyl-2-pyrimidin-2-yl-7,8-dihydro-5H-pyrido[4,3-d]pyrimidin-6-yl)phenoxy]hexan-1-amine] | 0.022 |  |
| CC1c2cnc(-c3ncccn3)nc2CCN1c1cc(F)c(F)c(OCC(N)=O)c1 (single isomer, unassigned; (-)) [Example 68, (−)-2-[2,3-difluoro-5-[5-methyl-2-pyrimidin-2-yl-7,8-dihydro-5H-pyrido[4,3-d]pyrimidin-6-yl]phenoxy]acetamide] | 0.074 |  |
| CC1c2cnc(-c3ncccn3)nc2CCN1c1cc(F)c(F)c(OCC(F)(F)F)c1 (stereo not drawn) [Example 69, 6-[3,4-difluoro-5-(2,2,2-trifluoroethoxy)phenyl]-5-methyl-2-pyrimidin-2-yl-7,8-dihydro-5H-pyrido[4,3-d]pyrimidine] |  | 0.033 |
| CC1c2cnc(-c3ccccn3)nc2CCN1c1cc(N2CCNC(=O)C2)cc(F)n1 (stereo not drawn) [Example 222, 4-[2-fluoro-6-[5-methyl-2-(2-pyridyl)-7,8-dihydro-5H-pyrido[4,3-d]pyrimidin-6-yl]-4-pyridyl]piperazin-2-one] |  | 0.016 |
| CC1c2cnc(-c3ncccn3)nc2CCN1c1cc(OCCCN2CCOCC2=O)cc(F)n1 (single isomer, unassigned; (-)) [Example 181, (−)-4-[3-[[2-fluoro-6-[5-methyl-2-pyrimidin-2-yl-7,8-dihydro-5H-pyrido[4,3-d]pyrimidin-6-yl]-4-pyridyl]oxy]propyl]morpholin-3-one] |  | 0.012 |
| COc1cc(N2CCc3nc(-c4ncccn4)ncc3C2C)cc(F)c1I (stereo not drawn) [Example 111, 6-(3-fluoro-4-iodo-5-methoxy-phenyl)-5-methyl-2-pyrimidin-2-yl-7,8-dihydro-5H-pyrido[4,3-d]pyrimidine] |  | 0.041 |
| COc1cc(N2CCc3nc(-c4ncccn4)ncc3C2C)cc(F)c1F (single isomer, unassigned; (+)) [Example 16, (+)-6-(3,4-difluoro-5-methoxy-phenyl)-5-methyl-2-pyrimidin-2-yl-7,8-dihydro-5H-pyrido[4,3-d]pyrimidine] | 1.52 |  |
| CC1c2cnc(-c3ncccn3)nc2CCN1c1cc(F)nc(OCC(F)F)c1 (stereo not drawn) [Example 150, 6-[2-(2,2-difluoroethoxy)-6-fluoro-4-pyridyl]-5-methyl-2-pyrimidin-2-yl-7,8-dihydro-5H-pyrido[4,3-d]pyrimidine] |  | 0.049 |
| COc1cc(F)c(Cl)c(N2CCc3nc(-c4ncccn4)ncc3C2C)c1Cl (single isomer, unassigned; (+)) [Example 123, (+)-6-(2,6-dichloro-3-fluoro-5-methoxy-phenyl)-5-methyl-2-pyrimidin-2-yl-7,8-dihydro-5H-pyrido[4,3-d]pyrimidine] |  | 1.14 |
| CC1c2cnc(-c3ncccn3)nc2CCN1c1cc(F)c(F)c(OCCC(N)C(=O)O)c1 (stereo not drawn) [Example 104, 2-amino-4-[2,3-difluoro-5-(5-methyl-2-pyrimidin-2-yl-7,8-dihydro-5H-pyrido[4,3-d]pyrimidin-6-yl)phenoxy]butanoic acid] |  | 19 |
| COc1cc(F)cc(N2CCc3nc(-c4ncccn4)ncc3C2C)c1 (stereo not drawn) [Example 72, 6-(3-fluoro-5-methoxy-phenyl)-5-methyl-2-pyrimidin-2-yl-7,8-dihydro-5H-pyrido[4,3-d]pyrimidine] | 0.022 |  |
| CC1c2cnc(-c3ncccn3)nc2CCN1c1cc(F)c(F)c(OCCCN2CCNC(=O)C2)c1 (stereo not drawn) [Example 107, 4-[3-[2,3-difluoro-5-(5-methyl-2-pyrimidin-2-yl-7,8-dihydro-5H-pyrido[4,3-d]pyrimidin-6-yl)phenoxy]propyl]piperazin-2-one] |  | 0.171 |
